Experimental data reported in patent publication US20060041959A1, “Control of plant growth and developmental process” (Universiteit Leiden, priority 2003, published 2006).
“Also recorded” adds a separate entry of the source.

Legend:
[1] = system: mutant phenotypes caused by NM—115413.1/NM—106300.1 overexpression constructs; experiment: Effect of plant growth substance on NM_115413.1/NM_106300.1 overexpressing mutant phenotypes; format: in vivo, Arabidopsis; conditions: applied to overexpressing lines
Excerpt: (§1) It is thus likely that overexpression directly or indirectly leads to changes in the levels of plant growth substances. Plant cells affected in this manner can secrete regulatory signals affecting neighboring cells or tissues. It is thus shown herein that by using plant material overexpressing one or more members of the protein family described with the sequence identifiers mentioned, the development of other plant material (including non-transformed material) can be altered towards a more organogenic/embryogenic pathway.

[2] = system: wild-type arabiodopsis seeds (ecotype Columbia); experiment: Germination and growth of wild-type Arabidopsis seedlings on ½MS medium containing plant growth substance; format: in vivo
Excerpt: as §1

In the case of `CC(C)[C@@H](C)[C@@H](O)[C@H](O)[C@@H](C)[C@H]1CC[C@H]2[C@@H]3COC(=O)[C@H]4C[C@H](O)[C@H](O)C[C@]4(C)[C@H]3CC[C@]12C` [24-epibrassinolide], the “effect on mutant (overexpression) phenotypes” value [1] is reported as “able to make the mutant phenotypes more vigorous”, the “seedling growth phenotype after germination on medium containing the substance” value ([2]; 4 μM in ½MS medium, 14 and 28 dag, controls 0.1% DMSO, FIG. 3) is reported as “growth aberrations resembling those seen in NM—115413.1 or NM—106300.1 overexpressing seedlings can be observed” and the “somatic embryogenesis in wild-type plants” value ([2]; wild-type plants, FIG. 3) is reported as “somatic embryogenesis was not observed”. The “ability to mimic the mutant phenotypes caused by overexpression constructs in wild-type plants” value ([2]; wild-type plants, compared with other plant growth substances investigated) was “can mimic some of the effects of overexpression of the proteins of the invention; also recorded: most profound effect on wild-type plants”.
